Test: HEK WC Assay: Human embryonic kidney cells (HEK293), endogenously expressing soluble guanylate cyclase (sGC), were used to evaluate the activity of test compounds. Compounds stimulating the sGC receptor should cause an increase in the intracellular concentration of cGMP. HEK 293 cells were seeded in Dulbecco's Modification of Eagle's Medium supplemented with fetal bovine serum (10% final) and L-glutamine (2 mM final) in a 200 μL volume at a density of 1×10^5 cells/well in a poly-D-lysine coated 96 well flat bottom plate and grown overnight at 37° C. Medium was aspirated and cells were washed with 1× Hank's Buffered Saline Salt Solution (200 μL). Cells were then incubated for 15 minutes at 37° C. with 0.5 mM 3-isobutyl-1-methylxanthine (200 μL). Test article and sodium nitroprusside were then added to the assay mixture (2 μL each) and incubated at 37° C. for 10 minutes. After the 10 minute incubation, the assay mixture was aspirated and 0.1M HCl (200 μL) was added to the cells. The plate was incubated at 4° C. for 30 minutes in the 0.1M HCl to stop the reaction and lysed the cells. The plates were then centrifuged at 1,200 g for 5 minutes at room temperature. Supernatants were collected and transferred to a new flat bottom 96 well plate for analysis. Vehicle controls were carried out using DMSO (1%). A known sGC stimulator, BAY 41-2272, was used as the positive control. Samples were diluted with an equal volume of 1 M Ammonium Acetate (pH 7) to neutralize samples for better chromatography. A 2×cGMP standard curve was prepared in 0.1 M HCl and then diluted with an equal volume of 1 M Ammonium Acetate, with the following final concentrations in nM: 1024, 512, 256, 128, 64, 32, 16, 8, 4, 2, 1. cGMP concentrations were determined from each sample using the LC/MS conditions (Table 2 below) and calculated standard curve. EC50 values were calculated from concentration-response curves generated with GraphPad Prism Software.
Type: cell-based

| Structure (SMILES) | EC50 [µM] |
| --- | --- |
| CCOC(=O)c1cnc(-c2cc(-c3ccon3)n(Cc3ccccc3F)n2)nc1O | 20 to 40 |
| Nc1nc(-c2cc(-c3ccon3)n(Cc3ccccc3F)n2)ncc1NC(=O)c1cccc(OC(F)(F)F)c1 | < 20 |
| Nc1nc(-c2cc(-c3ccon3)n(Cc3ccccc3F)n2)ncc1NC(=O)c1cscn1 | < 20 |
| CC(C)(F)C(=O)Nc1cnc(-c2cc(-c3ccon3)n(Cc3ccccc3F)n2)nc1N | < 20 |
| Cc1cccc(C)c1C(=O)Nc1cnc(-c2cc(-c3ccon3)n(Cc3ccccc3F)n2)nc1N | < 20 |
| CN(C)c1ccccc1C(=O)Nc1cnc(-c2cc(-c3ccon3)n(Cc3ccccc3F)n2)nc1N | 40 to 60 |
| [C-]#[N+]c1cc(-c2ccccn2)nn1Cc1ccccc1F | 30 |
| Nc1nc(-c2cc(-c3ccon3)n(Cc3ccccc3F)n2)ncc1NC(=O)C1CC2C=CC1C2 (stereo unspecified) | < 20 |
| COc1ccc(C(=O)Nc2cnc(-c3cc(-c4ccon4)n(Cc4ccccc4F)n3)nc2N)cc1 | < 20 |
| Nc1nc(-c2cc(-c3ncco3)n(Cc3ccccc3F)n2)ncc1NC(=O)C1(C(F)(F)F)CC1 | < 20 |
| [C-]#[N+]C1(C(=O)Nc2cnc(-c3cc(-c4ccon4)n(Cc4ccccc4F)n3)nc2N)CC1 | < 20 |
